We go through four compounds from ChEMBL document CHEMBL1143917, “Improved synthesis of histone deacetylase inhibitors (HDIs) (MS-275 and CI-994) and inhibitory effects of HDIs alone or in combination with RAMBAs or retinoids on growth of human LNCaP prostate cancer cells and tumor xenografts” (Bioorg Med Chem, 2008).

For test [1], the system named is LNCaP. Description: Cell cycle arrest in human LNCap cells assessed as accumulation at S phase relative to control at 5 uM. It counts as functional.
The subject of test [2] is LNCaP. Description: Cell cycle arrest in human LNCap cells assessed as accumulation at G1 phase relative to control at 5 uM. It counts as functional.
The subject of test [3] is LNCaP. Put plainly: Antitumor activity against human LNCap cells xenografted SCID mouse model at 10 to 20 mg/kg/day, sc relative to control. It counts as functional. The note with it: route subcutaneous.
Test [4] concerns LNCaP. Put plainly: Cell cycle arrest in human LNCap cells assessed as accumulation at G2/M phase relative to control at 5 uM. The class given is functional.
Test [5] relates to LNCaP. Put plainly: Antiproliferative activity against human LNCap by MTT assay. It counts as functional, cell-based.
Test [6] concerns LNCaP. Description: Cell cycle arrest in human LNCap cells assessed as accumulation at G2/M phase relative to control at 1 uM. The class given is functional.
Test [7] relates to LNCaP. Put plainly: Cell cycle arrest in human LNCap cells assessed as accumulation at G1 phase relative to control at 1 uM. The class given is functional.
Test [8] deals with LNCaP. Description: Antitumor activity against human LNCap cells xenografted SCID mouse model at 20 to 10 mg/kg/day, sc relative to control. It counts as functional. The note with it: route subcutaneous.
Test [9] has as its system LNCaP. Put plainly: Cell cycle arrest in human LNCap cells assessed as accumulation at S phase relative to control at 1 uM. The class given is functional.

With `CC1=C(/C=C/C(C)=C/C=C/C(C)=C/C(=O)Nc2ccc(O)cc2)C(C)(C)CCC1n1ccnc1` (stereo not given), the Activity in the test on LNCaP [1] turned out to be 10.86%; with LNCaP [2], 89.14%; in the test on LNCaP [3], 81.6%; in the test with LNCaP [4] it was 0%.
As for `Nc1ccccc1NC(=O)c1ccc(CNC(=O)OCc2cccnc2)cc1` [ENTINOSTAT], half-maximal inhibition in the test with LNCaP [5] (IC50) was put at 0.36 µM.
With `CC(=O)Nc1ccc(C(=O)Nc2ccccc2N)cc1` [TACEDINALINE], in the test on LNCaP [5], the IC50 was 7.4 µM. Compared with the last compound, the IC50 is about 21-fold higher.
For the compound `O=C(CCCCCCC(=O)Nc1ccccc1)NO` [VORINOSTAT], the Activity with LNCaP [6] amounted to 0%; in the test on LNCaP [7], 81.9%; in the test with LNCaP [8] it was 97.1%; in the test with LNCaP [9], 18.1%.

The term IC50 denotes the concentration at which inhibition is half-maximal. Low values mean greater potency, high ones weaker potency.
